Results on eight compounds are retold here after ChEMBL document CHEMBL1201862, “PubChem BioAssay data set” (2004).

Among the test systems are MOLT-4; SNB-75; NCI-H522; TK-10; LOX IMVI; SF-268; K562; MDA-MB-435; HOP-62; SF-295; HOP-92; DU-145; OVCAR-5; HCT-15; NCI-H226; UACC-257; HCT-116; RXF 393; UO-31.
Common to all, as to test: NCI-60 cell line screen, 48 h

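A five-concentration, 48-hour dose response in 96-well plates underlies each endpoint, interpolated linearly between surrounding concentrations. At the GI50, growth is halved.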 Active and inactive are the calls of the source. Cut-off read from the data, not from the text of the source: active = GI50 up to about 1.1 µM and inactive = higher.

As for `CCc1cn(C2CC(CO)C(CO)S2)c(=O)[nH]c1=O` (configuration not stated), the GI50 in the experiment on MOLT-4, with SNB-75, in the experiment with NCI-H522, in the experiment on TK-10, in the experiment on LOX IMVI and with SF-268 was > 100 µM (inactive) in each case. Further, the GI50 in the experiment on K562, in the experiment on MDA-MB-435, with HOP-62, with SF-295, in the experiment on HOP-92 and with DU-145 was > 100 µM (inactive) in each case. Besides, the GI50 in the experiment with OVCAR-5 is > 100 µM (inactive); with HCT-15, over 100 µM; in the experiment on NCI-H226 it was > 100 µM (inactive); in the experiment with UACC-257 it was > 100 µM (inactive); in the experiment with HCT-116 it was > 100 µM (inactive); in the experiment with RXF 393, > 100 µM (inactive). For the same compound, the GI50 with UO-31 is > 100 µM (inactive).
For the compound `CC(C)(C)N1CSC(=S)N(Cc2ccco2)C1`, the GI50 in the experiment on MOLT-4 is 1.45 µM (inactive); with SNB-75, 12.8 µM (inactive); in the experiment with NCI-H522, 3.27 µM (inactive); in the experiment on TK-10 it was 3.04 µM (inactive); in the experiment with LOX IMVI, 3.05 µM (inactive); in the experiment with SF-268, 3.93 µM (inactive). Besides, the GI50 was 1.85 µM (inactive) in the experiment on K562; 1.76 µM (inactive) with MDA-MB-435; 4.8 µM (inactive) with HOP-62; 15.8 µM (inactive) with SF-295; 1.55 µM (inactive) with HOP-92; 3.85 µM (inactive) in the experiment with DU-145. Also, the GI50 is 3.1 µM (inactive) with OVCAR-5; 2.56 µM in the experiment on HCT-15; 20.3 µM (inactive) with NCI-H226; 10.3 µM (inactive) with UACC-257; 3.81 µM (inactive) with HCT-116; 5.87 µM (inactive) in the experiment on RXF 393. Further, the GI50 with UO-31 was 2.38 µM (inactive).
On to `COC1(OC)C[C@H](C)[C@@]23O[C@]24c2cc(O)c5c(c2N[C@H]3C#C/C=C\C#C[C@]14O)C(=O)c1ccccc1C5=O`, for which the GI50 was 0.005 µM (active) with SNB-75; 0.00635 µM (active) with NCI-H522; 0.0245 µM (active) with TK-10; 0.005 µM (active) in the experiment on LOX IMVI; 0.005 µM (active) in the experiment on SF-268; 0.005 µM (active) in the experiment with K562. Besides, the GI50 in the experiment with MDA-MB-435 was 0.00703 µM (active); in the experiment on HOP-62, 0.005 µM (active); in the experiment on SF-295 it was 0.005 µM (active); with HOP-92, 0.00107 µM (active); in the experiment on DU-145, 0.005 µM (active); with OVCAR-5 it was 0.00692 µM (active). In addition, the GI50 with HCT-15 is 0.005 µM; in the experiment with NCI-H226, 0.005 µM (active); in the experiment on UACC-257, 0.005 µM (active); in the experiment on HCT-116, 0.005 µM (active); in the experiment with RXF 393 it was 0.005 µM (active); in the experiment on UO-31, 0.005 µM (active).
In the case of `COc1ccc(C(=O)O[C@@H]2CCN3CC[C@H](C)[C@H]23)cc1`, the GI50 in the experiment on MOLT-4, in the experiment on SNB-75, with NCI-H522, in the experiment with TK-10, in the experiment with LOX IMVI and in the experiment with SF-268 was > 100 µM (inactive) each time. Moreover, the GI50 with MDA-MB-435, in the experiment with HOP-62, with SF-295, with HOP-92, in the experiment with DU-145 and in the experiment with OVCAR-5 was > 100 µM (inactive) in each case. The GI50 with HCT-15 is over 100 µM; in the experiment on NCI-H226 it was > 100 µM (inactive); with UACC-257, > 100 µM (inactive); in the experiment on HCT-116, > 100 µM (inactive); with RXF 393, 45.9 µM (inactive); in the experiment with UO-31 it was 58.1 µM (inactive).
Consider `COc1ccc2sc(-n3nc4ccccc4c3Nc3nc4ccc(OC)cc4s3)nc2c1`, for which the GI50 in the experiment on SNB-75 is 3 µM (inactive); in the experiment on NCI-H522 it was 2.52 µM (inactive); with TK-10, 2.62 µM (inactive); in the experiment on LOX IMVI, 5.47 µM (inactive); in the experiment with SF-268 it was 5.01 µM (inactive); in the experiment on K562, 1.59 µM (inactive). Besides, the GI50 is 3.24 µM (inactive) with MDA-MB-435; 1.79 µM (inactive) in the experiment on HOP-62; 3.29 µM (inactive) in the experiment on SF-295; 3.12 µM (inactive) in the experiment with HOP-92; 2.98 µM (inactive) in the experiment with DU-145; 2.88 µM (inactive) in the experiment on OVCAR-5. For the same compound, the GI50 with HCT-15 is 10.5 µM; in the experiment with NCI-H226 it was 2.9 µM (inactive); with UACC-257, 4.1 µM (inactive); with HCT-116, 1.8 µM (inactive); in the experiment with RXF 393, 11 µM (inactive); in the experiment on UO-31, 7.16 µM (inactive).
With `OC(C/C=N/Nc1ccccc1)(C(F)(F)Cl)C(F)(F)Cl`, the GI50 in the experiment on SNB-75 is 9.91 µM (inactive); in the experiment with NCI-H522, 4.05 µM (inactive); in the experiment with TK-10, > 10 µM (inactive); in the experiment on LOX IMVI, > 10 µM (inactive); in the experiment with SF-268, > 10 µM (inactive); in the experiment on K562, 9.46 µM (inactive). In addition, the GI50 is 7.35 µM (inactive) with MDA-MB-435; > 10 µM (inactive) with HOP-62; > 10 µM (inactive) in the experiment with SF-295; 7.35 µM (inactive) with HOP-92; > 10 µM (inactive) in the experiment with DU-145; 5.2 µM in the experiment with HCT-15. Besides, the GI50 was 7.38 µM (inactive) with NCI-H226; > 10 µM (inactive) in the experiment on UACC-257; 5.15 µM (inactive) in the experiment on HCT-116; 6.75 µM (inactive) in the experiment with RXF 393; 9.98 µM (inactive) with UO-31.
For the compound `NC1=CN(CCCO)C2=N/C(=C\c3ccccc3)C(=O)N12`, the GI50 in the experiment with MOLT-4 is > 100 µM (inactive); with SNB-75, > 100 µM (inactive); with NCI-H522 it was 80.4 µM (inactive); in the experiment with TK-10, > 100 µM (inactive); in the experiment with LOX IMVI, > 100 µM (inactive); with SF-268 it was > 100 µM (inactive). The GI50 in the experiment on K562, with MDA-MB-435, in the experiment on HOP-62, in the experiment on SF-295, in the experiment on HOP-92 and in the experiment with DU-145 was > 100 µM (inactive) in each case. The GI50 was > 100 µM (inactive) with OVCAR-5; over 100 µM in the experiment on HCT-15; > 100 µM (inactive) with NCI-H226; > 100 µM (inactive) in the experiment on UACC-257; > 100 µM (inactive) in the experiment on HCT-116; > 100 µM (inactive) in the experiment on RXF 393. The GI50 with UO-31 is > 100 µM (inactive).
As to `O=S(=O)(O)c1cc(S(=O)(=O)O)c2c(/N=N/c3cccc4ccccc34)c(O)ccc2c1`, the GI50 in the experiment with MOLT-4, in the experiment on SNB-75, with NCI-H522, in the experiment with TK-10, in the experiment with LOX IMVI and in the experiment with SF-268 was > 100 µM (inactive) throughout. Also, the GI50 in the experiment with K562, with MDA-MB-435, with HOP-62, in the experiment with SF-295, in the experiment with HOP-92 and with DU-145 was > 100 µM (inactive) throughout. The GI50 was > 100 µM (inactive) in the experiment on OVCAR-5; over 100 µM in the experiment on HCT-15; > 100 µM (inactive) in the experiment on NCI-H226; > 100 µM (inactive) in the experiment on UACC-257; > 100 µM (inactive) in the experiment on HCT-116; > 100 µM (inactive) in the experiment on RXF 393. Moreover, the GI50 in the experiment on UO-31 was > 100 µM (inactive).
